Experimental data reported in US7276337B2, “Compositions and methods for visual ribonuclease detection assays” (Integrated DNA Technologies, Inc., priority 2000, dated 2007).

Key:
[1] = system: RNase A, RNase 1, and RNase T1; assay: Substrate optimization in ribonuclease assays (visual and fluorometric detection); assay type: biochemical; conditions: 28 Substrate ODNs compared
Protocol: Nuclease assays were conducted using the method of the invention with both visual and fluorometric detection methods. Substrates were individually mixed in 1× Assay Buffer at a concentration of 50 nM (50 pmoles oligonucleotide in 1 ml volume) for fluorometric detection or at a concentration of 500 nM (50 pmoles of oligonucleotide in 100 ul volume) for visual detection. Test nucleases were added to respective Assay Mixes beginning at 1 ul stock reagent and proceeding with a 1:10 serial dilution until undetectable. Reaction mixes were incubated at 37° C. for 60 minutes. Fluorometric detection was performed as outlined in Example 2. Visual detection was performed as outlined in Example 1.
Different Substrates were examined for reactivity with RNase A, RNase 1, and RNase T1. A Substrate composition that contains all 4 ribonucleotide bases in an optimized sequence might be sensitive to most ribonuclease activities and could function as a stand-alone reagent for the Assay. Alternatively, a mix of Substrates could be used (for example, wherein one Substrate contains adenosine, one contains guanosine, one contains uridine, and one contains cytosine residues). Both possibilities were tested. […] Substrates having different base sequence were compared for sensitivity. […] Sequence dependence for RNase T1 was pronounced with cleavage preference being ‘gg’>‘gc’>‘ga’>‘gu’. […]

RNase 1 = RNase 1 (Escherichia coli, UniProt P21338); assay: Visual detection ribonuclease assay, cleavage of Substrate by RNase 1; assay type: biochemical, E. coli; conditions: final dilution factors of stock 10^−2 to 10^−7; Substrate 500 nM; room temperature 10 minutes
RNase 1, sequence (P21338 24-268): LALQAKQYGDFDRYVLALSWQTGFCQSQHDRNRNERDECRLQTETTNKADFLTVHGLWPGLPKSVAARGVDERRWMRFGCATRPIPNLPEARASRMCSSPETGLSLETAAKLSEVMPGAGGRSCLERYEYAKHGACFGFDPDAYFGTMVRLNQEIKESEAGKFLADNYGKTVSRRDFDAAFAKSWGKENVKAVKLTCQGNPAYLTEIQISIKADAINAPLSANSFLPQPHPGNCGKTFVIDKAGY
Protocol: It is commonly accepted that fluorometry provides for high sensitivity. To be useful, the visual method must also offer high sensitivity. Assays were conducted using the method of the invention with visual detection. Substrate SEQ ID NO:30 was mixed in 1× Assay Buffer at a concentration of 500 nM (50 pmoles ODN in 100 ul volume) in thin-walled, UV transparent tubes. […] Dilutions of stock RNase A, RNase 1, and RNase T1 were made in water. Undiluted and diluted nuclease (1 ul) was added to respective 100 ul Assay Mixes resulting in final dilution factors of 10^−2, 10^−3, 10^−4, 10^−5, 10^−6, and 10^−7. Assays were incubated at room temperature for 10 minutes and visually examined for fluorescence emission with UV excitation. […] The experiment took about 30 minutes to perform, including 15 minutes to set-up serial dilutions, 10 minutes incubation, and 5 minutes to visualize and photograph. Thus the method of the invention allows for a rapid, simple, and convenient visual assay for the presence of ribonuclease activity.

Substance: 5′ Fluorescein-AauggcA-QSY-7 3′ (NAAUGGCAN; 5' fluorescein and 3' QSY-7 labels, nucleotide chemistry not given here) [SEQ ID NO:30]
- Relative activity / sensitivity among Substrates tested [1]: most active
- Detection of RNase 1 activity by visual examination (RNase 1): clearly detectable
